Converted amounts (≈) assume the structure as drawn. Non-standard residues stand in square brackets, D forms with d. Residues, ends and D or L forms follow the SMILES beside them. ξ: configuration not given here. *: point of attachment. Tos = Cc1ccc(S(=O)(=O)*)cc1; ξP = O=C(O)C1CCCN1 A value given as a limit tells only on which side of the number the result lay.

The conditions of the data set: buffer; pH 7.4; 200.0 µM.
The solubility (kinetic) is solubility judged after dilution from a stock solution rather than from solid. Turning to `O=[N+]([O-])c1ccccc1S(=O)(=O)N1CCCC(C(F)(F)F)C1` (centres undefined), the solubility (kinetic) was 3.1 µg/mL (≈ 9.16 µM).
As for `Cc1ccc(C(OCC(O)CN2CCCCC2)c2ccccc2)cc1` (centres undefined), the solubility (kinetic) was 40.2 µg/mL (≈ 118 µM).
With `COc1ccccc1S(=O)(=O)Nc1cccc(S(=O)(=O)N2CCCC2)c1`, the kinetic solubility is over 59.5 µg/mL.
`O=C(NCCc1ccc2c(c1)OCCO2)c1ccccn1`: the kinetic solubility is over 42.6 µg/mL.
Consider `O=C(CSc1ccc2c(c1)OCCO2)Nc1cccnc1`, for which the kinetic solubility was over 45.4 µg/mL.
Molecule `Cc1cccc(OCCn2ccnc2)c1C` returned a solubility (kinetic) of 22.7 µg/mL (≈ 105 µM).
On to `Cc1cccc(C(=O)NCC(=O)N2CC(=O)Nc3ccccc32)c1`, for which the solubility (kinetic) is over 48.5 µg/mL.
For `O=C(CC1SC(N2CCOCC2)=NC1=O)Nc1ccccc1F` (centres undefined), the kinetic solubility is over 50.6 µg/mL.
On to `Cc1nc2ccccc2c(=O)n1-c1ccc([N+](=O)[O-])cc1`, for which the solubility (kinetic) is over 42.2 µg/mL.
Next, `CCOP(=O)(OCC)C(Nc1ccc(C)cc1)c1ccco1` (centres undefined): 46.3 µg/mL (≈ 143 µM); `Cc1ccc(-c2csc3ncnc(SCC(=O)O)c23)cc1`: over 47.5 µg/mL; `Cc1ccc(/C=C/C(=O)Nc2cc(S(N)(=O)=O)ccc2O)cc1`: 42.2 µg/mL (≈ 127 µM).
As for `Cc1cc(=O)[nH]c(SCC(=O)Nc2ccc3c(c2)CCC3)c1C#N`, the figure is 17.7 µg/mL (≈ 52.1 µM); as for `N#Cc1ccccc1NC(=O)COc1ccc2c(c1)OCO2`, 17.1 µg/mL (≈ 57.7 µM).
`COc1ccc(-n2c(-c3ccccc3)c[n+]3c2CCC3)cc1.[Br-]` yielded a solubility (kinetic) of over 55.7 µg/mL.
Next, `Cc1ccc(NC(=O)Nc2cnc3ccccc3c2)cc1`: 0.3 µg/mL (≈ 1.08 µM); `COc1ccc(OCCSc2nc(C)nc3ccccc23)cc1`: 0.6 µg/mL (≈ 1.84 µM).
`O=C(O)c1ccc(/C=N/N2CCN(c3ccccc3)CC2)cc1` displayed a kinetic solubility of over 46.4 µg/mL.
For `N#Cc1ccccc1CN1C(=O)NC2(CCCCCC2)C1=O`, the solubility (kinetic) is over 44.6 µg/mL.
In the case of `CCCOC(=O)C1=C(C)NC(=O)NC1c1cccc2ccccc12` (centres undefined), the kinetic solubility is under 0.3 µg/mL.
The molecule `O=C(Nc1cc([N+](=O)[O-])ccc1N1CCCC1)c1cccs1` yielded a solubility (kinetic) of 4.1 µg/mL (≈ 12.9 µM).
As to `Cc1ccc(NC(=O)C2=C(C(=O)O)CCCC2)cc1Br`, the solubility (kinetic) is 33.3 µg/mL (≈ 98.5 µM).
Regarding `Cc1nc2ccc(NC(=O)c3ccc4ccccc4n3)cc2s1`, the kinetic solubility is under 0.2 µg/mL.
The molecule `COc1ccc(C(=O)O)cc1S(=O)(=O)N1CCCc2ccccc21` gave a kinetic solubility of over 52.1 µg/mL.
With `COC(=O)CNC(=O)COC(=O)/C=C/c1cccs1`, the solubility (kinetic) was over 42.5 µg/mL.
Molecule `COc1cc2c(cc1OC)C(C)N(S(=O)(=O)c1cccs1)CC2` (centres undefined) gave a solubility (kinetic) of 41.1 µg/mL (≈ 116 µM).
As for `O=C(CCC(=O)c1ccc(Cl)cc1)NCc1ccccc1`, the figure is 14.3 µg/mL (≈ 47.4 µM); as for `COc1ccc(C(=O)N2CCN(C(=O)C3CCCO3)CC2)cc1[N+](=O)[O-]` (centres undefined), over 54.5 µg/mL.
As for `O=S(=O)(c1c(F)cccc1F)N1CCCC2CCCCC21` (centres undefined), the figure is 13.3 µg/mL (≈ 42.2 µM); as for `CCOC(=O)c1c(NC(=O)CN2CCN(C(=O)c3ccco3)CC2)sc(C(N)=O)c1C`, 5.6 µg/mL (≈ 12.5 µM).
The molecule `COc1ccc(Cl)cc1C(=O)Nc1cccnc1` came in with a solubility (kinetic) of 22.1 µg/mL (≈ 84.1 µM).
As to `Cc1ccc(-c2noc(CCCC(=O)NC3CCCC3)n2)cc1`, the solubility (kinetic) amounted to 44 µg/mL (≈ 140 µM).
For the molecule `COC(C(=O)Nc1c(F)cccc1F)c1ccccc1` (centres undefined), the kinetic solubility was over 41.6 µg/mL.
As for `O=C(CN1C(=O)c2ccccc2S1(=O)=O)NCc1ccccc1`, the solubility (kinetic) is over 49.6 µg/mL.
For `CCN(C(=O)COC(=O)c1ccco1)c1cccc2ccccc12`, the kinetic solubility was found to be 47.4 µg/mL (≈ 147 µM).
Consider `O=C(O)CCCC(=O)NCc1c(Cl)cccc1Sc1ccc(Cl)cc1`, for which the kinetic solubility was over 59.7 µg/mL.
Next, `CC(C)c1ccc(Nc2c([N+](=O)[O-])c(=O)n(C)c3ccccc23)cc1`: under 0.2 µg/mL; `Nc1nc(NCCO)nc(NCc2ccccc2)c1[N+](=O)[O-]`: 15.6 µg/mL (≈ 51.3 µM).
As for `O=C(Nc1nc2ccccc2s1)NC1CCCCC1`, the figure is 1.6 µg/mL (≈ 5.81 µM); as for `O=C(c1ccc2c(c1)OCCCO2)N1CCCCC1`, 28.6 µg/mL (≈ 109 µM).
`O=C(CSc1nnc2ccccn12)c1ccc(Cl)cc1` showed a solubility (kinetic) of over 45.6 µg/mL.
For `Cc1ccc(-n2c(N)c(Br)c(=O)[nH]c2=O)cc1C`, the kinetic solubility is over 46.5 µg/mL.
For the molecule `CN1C(=O)c2ccccc2Sc2ccc(C(=O)O)cc21`, the solubility (kinetic) was over 42.8 µg/mL.
`CCC(=O)Nc1ccc(NC(=O)c2ccc3ccccc3c2)cc1` displayed a kinetic solubility of under 0.3 µg/mL.
Take `CC(C)(C)c1csc(Sc2ccc([N+](=O)[O-])cn2)n1`: the solubility (kinetic) worked out at 1.1 µg/mL (≈ 3.72 µM).
Regarding `S=c1nc[nH]c2nc[nH]c12`, the kinetic solubility worked out at 22.5 µg/mL (≈ 148 µM).
As to `COC(=O)c1ccc(OCC(=O)NC2CCCCCC2)cc1`, the kinetic solubility was over 45.8 µg/mL.
For the molecule `N/C(=N\c1nc2ccccc2o1)NC(=O)c1ccccc1Br`, the solubility (kinetic) was under 0.2 µg/mL.
As for `C=C(C)C(=O)OCC(=O)NCc1ccccc1`, the figure is 27.2 µg/mL (≈ 117 µM); as for `CC(=O)CSc1ccc(-c2nc3ccccc3[nH]2)cn1`, over 42.5 µg/mL.
`O=c1c2c3c(sc2nc2n1CCC2)CCCC3`: the solubility (kinetic) was 33.8 µg/mL (≈ 137 µM).
As for `O=C(O)CSc1ncnc2sc(-c3ccccc3)cc12`, the figure is over 45.4 µg/mL; as for `C#CC(C)OC(=O)Nc1cnccc1C(F)(F)F` (centres undefined), 36 µg/mL (≈ 139 µM); as for `Cc1ccc(C(=O)NCCCNC(=O)c2ccco2)cn1`, 34.3 µg/mL (≈ 119 µM).
As for `Cc1ccccc1OCCCCn1c(CO)nc2ccccc21`, the figure is 29.2 µg/mL (≈ 94.1 µM).
Take `O=C(CNC(=O)c1ccco1)N/N=C/c1ccc(O)cc1O`: the kinetic solubility was over 45.5 µg/mL.
In turn, `Cc1nc(-c2ccccn2)sc1C(=O)O` registered a kinetic solubility of over 33 µg/mL.
On to `COC(=O)CC1C(=O)NCCN1C(=O)c1ccc([N+](=O)[O-])cc1` (centres undefined), for which the solubility (kinetic) was over 48.2 µg/mL.
For `O=[N+]([O-])c1ccc(C(=S)N2CCCC2)cc1`, the kinetic solubility was over 35.4 µg/mL.
As for `NC(=O)c1c(/N=C/c2cccs2)sc2c1CCCC2`, the figure is 18.4 µg/mL (≈ 63.4 µM); as for `O=C(Nc1ccc(-c2ccc([N+](=O)[O-])cc2)cc1)c1ccccc1F`, under 0.4 µg/mL; as for `C=CCN=C1S/C(=C\N(C)C)C(=O)N1S(=O)(=O)c1ccc(C)cc1`, 2.8 µg/mL (≈ 7.66 µM).
As for `OCCN(CC#CCn1c2ccccc2c2ccccc21)CCO`, the figure is over 48.4 µg/mL.
Molecule `COc1cc(OC)cc(C(=O)Nc2cccc3c2CCCC3)c1` gave a solubility (kinetic) of under 0.7 µg/mL.
The molecule `CCN1CCc2c(OCc3ccc(C)cc3)cccc2C1=O` came in with a kinetic solubility of 18.9 µg/mL (≈ 64 µM).
Consider `CC(C)S(=O)(=O)C/C(N)=N/OS(=O)(=O)c1ccc(Cl)cc1`, for which the kinetic solubility turned out to be 42.5 µg/mL (≈ 120 µM).
On to `CCC(=O)Nc1ccc(NC(=O)c2oc3ccccc3c2C)cc1`, for which the kinetic solubility stood at 1.2 µg/mL (≈ 3.72 µM).
Consider `CN1CCN(c2nc(-c3ccccc3O)nc3ccccc23)CC1`, for which the solubility (kinetic) amounted to 1 µg/mL (≈ 3.12 µM).
In turn, `CCOCc1[nH]c(=S)[nH]c(=O)c1Cc1ccc(OC(C)C)cc1` displayed a solubility (kinetic) of over 50.2 µg/mL.
In turn, `O=C(/C=C/c1ccco1)NCCCN1CCOCC1` returned a solubility (kinetic) of over 39.6 µg/mL.
`COc1cccc(Oc2ccc(C(F)(F)F)cc2NC(=O)C2=COCCO2)c1`: the solubility (kinetic) amounted to 1.5 µg/mL (≈ 3.79 µM).
`COC(=O)c1ccc(CSc2cc(C)c3ccccc3n2)o1` registered a kinetic solubility of 3.4 µg/mL (≈ 10.8 µM).
In the case of `CC12CC3CC(C)(C1)CC(NCc1ccncc1)(C3)C2.Cl`, the kinetic solubility was over 46 µg/mL.
`O=C(Nc1ccc(N2CCN(C(=O)c3cccs3)CC2)cc1)c1ccco1`: the solubility (kinetic) was determined as 1.6 µg/mL (≈ 4.19 µM).
For the molecule `COc1ccc(CCNC(=O)C2CC(O)CN2S(=O)(=O)c2ccc(Cl)cc2)cc1OC` (centres undefined), the solubility (kinetic) is over 70.3 µg/mL.
As for `O=C(COC(=O)Cc1ccsc1)Nc1cccc(Cl)c1`, the figure is over 46.5 µg/mL.
With `Cc1ccc(S(=O)(=O)NCC(=O)N2CCCC2C(=O)O)cc1` (stereo not drawn) (Tos-Gly-[ξP]-OH), the solubility (kinetic) is over 49 µg/mL.
Molecule `Cc1cc(=O)[nH]c2ccc(S(=O)(=O)NC3CCCCC3)cc12` displayed a solubility (kinetic) of 4.5 µg/mL (≈ 14 µM).
In turn, `Cc1ccc(C(C)C)c(OCCCN2CCc3ccccc3C2)c1.Cl` displayed a solubility (kinetic) of 3.1 µg/mL.
As for `O=C(COC(=O)c1cccnc1Cl)c1ccc(F)cc1`, the figure is 42.7 µg/mL (≈ 145 µM).
As for `CN(C)c1cc(-c2ccccc2)nc(-c2ccccc2)n1`, the figure is under 0.2 µg/mL; as for `O=C(CSc1nc2ccccc2c(=O)n1CCCN1CCOCC1)Nc1ccc(F)c(Cl)c1`, 18.5 µg/mL (≈ 37.7 µM); as for `Cl.NCc1ccccc1CS(=O)(=O)N1CCOCC1`, over 46 µg/mL.
`Cc1ccc(CNC(=O)CCSCc2ccc(C)cc2)cc1` registered a solubility (kinetic) of 14.3 µg/mL (≈ 45.6 µM).
The molecule `CCc1ccccc1NCc1cc(=O)oc2cc(C)ccc12` had a solubility (kinetic) of 0.7 µg/mL (≈ 2.39 µM).
`CCOC(=O)c1c[nH]c2ccc3ccccc3c2c1=O`: the kinetic solubility came to 10.3 µg/mL (≈ 38.5 µM).
`Cc1cccc(NC(=O)[C@@H]2CCCN2C(=O)OC(C)(C)C)c1C`: the kinetic solubility came to 39.6 µg/mL (≈ 124 µM).
Next, `COc1ccc(/C=C2\N=C3CCCN3C2=O)cc1`: over 36.3 µg/mL; `O=C1CCC(C(=O)Nc2cccc(Br)c2)N1` (centres undefined): over 42.5 µg/mL.
In turn, `COc1ccc(CNC(=O)c2cc(SC)ccc2Cl)cc1OC` yielded a kinetic solubility of 49.1 µg/mL (≈ 140 µM).
As for `O=C1c2ccccc2NC(c2ccc(O)cc2)N1c1ccccc1` (centres undefined), the solubility (kinetic) turned out to be 9.5 µg/mL (≈ 30 µM).
The molecule `CNC(=O)c1[nH]cnc1C(=O)Nc1ccc(F)cc1` came in with a kinetic solubility of 1.7 µg/mL (≈ 6.48 µM).
In turn, `COc1ccc(C(=O)Nc2ccccc2C(=O)Nc2ccccn2)cc1` registered a solubility (kinetic) of under 0.2 µg/mL.
Molecule `CC(C)(C)C(=O)N1CCN(c2nc3ccccc3o2)CC1` registered a kinetic solubility of over 43.1 µg/mL.
The molecule `COCCNC(=O)C(=O)c1c(-c2ccccc2)[nH]c2ccccc12` came in with a solubility (kinetic) of over 48.4 µg/mL.
`CSc1ccccc1C(=O)OCC(=O)N1CCCC1=O` displayed a kinetic solubility of over 44 µg/mL.
As for `CCCCCC(=O)NC(=S)Nc1cccc(-c2nc3ncccc3o2)c1`, the figure is under 0.2 µg/mL; as for `CC(C)NC(=O)c1cc(-c2cccs2)nc2ccccc12`, 4.6 µg/mL (≈ 15.5 µM); as for `Cc1ccc2c(c1)c1c3n2CCNC3CCC1.Cl` (centres undefined), over 39.4 µg/mL.
Next, `CCOC(=O)C1C2C=CC3(CN(Cc4ccccc4)C(=O)C13)O2` (centres undefined): over 47 µg/mL.
As for `O=C(Nc1nc(-c2cccnc2)cs1)c1cccc([N+](=O)[O-])c1`, the solubility (kinetic) was 0.9 µg/mL (≈ 2.76 µM).
With `COc1ccc(Nc2ncnc3sccc23)c(OC)c1`, the kinetic solubility was determined as 25.1 µg/mL (≈ 87.4 µM).
As for `CCCCSCCCNC(=O)Nc1ccc(C)c(C)c1`, the figure is 1.1 µg/mL (≈ 3.74 µM); as for `O=S(=O)(c1cccs1)N1CCN(c2ccc(Cl)cc2)CC1`, under 0.4 µg/mL.

Values taken from PubChem BioAssay AID1996.
